Data: article PMC4342272 (Journal of the American Chemical Society, 2015)

Molecular target: c-Abl (Homo sapiens, UniProt P00519)
Assay: Dose-response inhibition assay, AbAStide time-resolved Tb3+ luminescence
Format: biochemical

Chain of c-Abl (P00519 whole entry): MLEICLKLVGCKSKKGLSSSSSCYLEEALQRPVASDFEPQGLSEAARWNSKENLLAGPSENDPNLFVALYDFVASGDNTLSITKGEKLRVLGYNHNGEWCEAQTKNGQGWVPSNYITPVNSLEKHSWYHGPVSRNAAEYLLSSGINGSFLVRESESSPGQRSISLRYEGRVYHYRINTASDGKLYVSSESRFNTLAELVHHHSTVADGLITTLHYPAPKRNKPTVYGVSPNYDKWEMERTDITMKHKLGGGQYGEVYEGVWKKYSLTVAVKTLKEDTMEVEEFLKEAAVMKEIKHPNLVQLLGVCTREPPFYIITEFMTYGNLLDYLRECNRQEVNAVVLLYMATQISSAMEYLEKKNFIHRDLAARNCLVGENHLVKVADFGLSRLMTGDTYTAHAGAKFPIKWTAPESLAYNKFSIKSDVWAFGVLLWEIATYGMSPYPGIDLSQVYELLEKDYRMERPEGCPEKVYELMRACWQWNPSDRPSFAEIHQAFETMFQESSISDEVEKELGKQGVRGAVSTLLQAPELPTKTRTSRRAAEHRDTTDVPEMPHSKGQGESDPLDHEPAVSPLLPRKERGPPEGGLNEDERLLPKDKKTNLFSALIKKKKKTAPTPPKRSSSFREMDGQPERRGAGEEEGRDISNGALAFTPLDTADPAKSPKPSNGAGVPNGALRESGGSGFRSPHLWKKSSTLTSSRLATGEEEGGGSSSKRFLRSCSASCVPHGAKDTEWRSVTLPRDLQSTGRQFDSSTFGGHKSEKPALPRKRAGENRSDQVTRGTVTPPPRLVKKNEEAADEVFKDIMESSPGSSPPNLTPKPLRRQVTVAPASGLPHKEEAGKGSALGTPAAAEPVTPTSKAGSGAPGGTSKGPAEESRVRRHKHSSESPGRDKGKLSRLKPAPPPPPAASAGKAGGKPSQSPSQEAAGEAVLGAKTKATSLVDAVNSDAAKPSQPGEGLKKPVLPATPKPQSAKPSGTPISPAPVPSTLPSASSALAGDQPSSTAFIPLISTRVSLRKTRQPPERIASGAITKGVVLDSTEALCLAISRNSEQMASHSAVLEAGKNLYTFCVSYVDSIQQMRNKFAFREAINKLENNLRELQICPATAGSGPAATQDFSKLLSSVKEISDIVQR

Row | Compound | IC50 | inhibition of Abl in dose-response kinase assay (AbAStide biosensor, negative compounds from HTS)
1 | COc1cc(C=NNc2ncnc3c2cnn3-c2ccccc2)ccc1O [GW513184X] | 0.35 nM | –
2 | COC(=O)Nc1nc2ccc(Oc3ccc(NC(=O)Nc4cc(C(F)(F)F)ccc4F)cc3)cc2s1 [GW693917A] | 0.52 nM | –
3 | c1ccc(-c2n[nH]cc2-c2ccnc(-c3ccc(OCCn4ccnc4)cc3)c2)nc1 [GW711782X] | 1.91 nM | –
4 | COC(=O)Nc1nc2ccc(Sc3ccc(NC(=O)Nc4cc(C(F)(F)F)ccc4F)cc3)cc2[nH]1 [GW607049C] | – | no inhibition
